Results taken from publication PMC9405596, “Evaluation of the Anti-Leishmania mexicana and -Trypanosoma brucei Activity and Mode of Action of 4,4′-(Arylmethylene)bis(3-methyl-1-phenyl-1H-pyrazol-5-ol)” (Biomedicines, 2022).
Entries after “also recorded” stand apart in the source; their conditions may differ. Like-named read-outs stand apart in the source and are kept apart here.

How the values were obtained:
[1] = tested on: hGrx1-roGFP2 redox biosensor in bloodstream T. brucei brucei; experiment: In-cell redox assay with hGrx1-roGFP2 biosensor (flow cytometry); details: compound at its IC50, 1 h; for intracellular biosensor oxidation: relative to diamide (full oxidation) and DTT (reduction)
[2] = tested on: L. mexicana promastigotes; experiment: MTT viability assay against L. mexicana promastigotes; format: cell-based, Leishmania mexicana; details: for L. mexicana Promastigote SI vs. Hepatocytes: CC50 HepG2 hepatocytes/IC50 L. mexicana; for L. mexicana Promastigote SI vs. Macrophage: CC50 RAW macrophages/IC50 L. mexicana; for IC50: 48 h
Protocol: The leishmanicidal activity against promastigotes from L. mexicana was evaluated by measuring parasites’ mitochondrial activity using the MTT (Thiazolyl Blue Tetrazolium Bromide) colorimetric assay as described previously. […] The medium was renewed every third day and subcultures were prepared when parasite density reached 1 × 10^7 parasites/mL. A Neubauer chamber was used to determine parasite density.

[3] = MTT cytotoxicity assay, murine macrophages; format: cell-based; details: mouse, RAW 264.7 macrophage cells, RAW 264.7, 48 h
Protocol: (§1) Murine macrophages (cell line RAW 264.7, ATCC® TIB-71™) were grown in Dulbecco’s Modified Eagle Medium (DMEM) (Gibco, Invitrogen, Waltham, MA, USA) supplemented with 10% fetal bovine serum (FBS) (Eurobio) and 100 IU/mL penicillin + 100 µg/mL streptomycin (Gibco), at 37 °C, in an atmosphere containing 5% CO2. Human hepatocyte cell line HepG2 (ATCC® HB-8065™) was grown in MEM (Gibco, Invitrogen) supplemented with 10% FBS (Gibco, Invitrogen), 1% NEAA (Gibco, Invitrogen), and 1% L-glutamine (Gibco, Invitrogen). The medium was renewed twice a week. For both cell lines, the viability was determined using the MTT assay as described before for leishmanicidal activity assessment, with some variations. Here, 5 × 10^4 cells/well in a final volume of 100 µL were seeded into a 96-well plate, in triplicate for RAW macrophages and in duplicate for HepG2. Saponin (2.4 mg/mL) and untreated cells were used as positive control and negative control, respectively. Compounds were dissolved in DMSO to obtain different serial concentrations (1.56 to 800 µM) for RAW macrophages and 100–0.001 µM for HepG2. The final concentration of DMSO in each well was 0.5%. After exposure to compounds for 48 h and 72 h for RAW and HepG2 cells, respectively, 10 µL/well of MTT (5 mg/mL in PBS) was added, incubated at 37 °C for 2 h in darkness, and cells were pelleted via centrifugation at 4400 rpm for 10 min. The medium was removed, and 100 µL/well of DMSO was added to dissolve formazan. The absorbance at 570 and 630 nm was recorded following the same procedure as with parasites.

[4] = set-up: method as in PMID 34082794; details: ref [17]; cited from earlier work
[5] = tested on: recombinant roGFP2 biosensor; experiment: In vitro fluorescence assay with recombinant roGFP2 biosensor; format: biochemical; details: 50 µM compound, 5 µM biosensor, 1 h
Protocol: The His-tagged recombinant form of a roGFP2 biosensor was expressed and purified from Escherichia coli (strain C41). An overnight pre-culture (LB medium + 50 µg/mL kanamycin, 220 rpm at 37 °C) of transformed cells was diluted 1:100 in fresh 2YT medium with 50 µg/mL kanamycin, and grown at 220 rpm and 37 °C until reaching an OD600 of ~0.8. At this time point, the culture was supplemented with IPTG (end concentration 1 mM) and the incubation was extended overnight at 100 rpm, 20 °C. Cells were harvested by centrifugation at 5000× g for 10 min at 4 °C and the cell pellet was resuspended in Buffer A (50 mM sodium phosphate, pH 8.0, 300 mM NaCl) at a ratio of 5 mL buffer per gram of pellet. Lysozyme (50 mg/mL) and DNAse (15 U/mL; Roche) were added to the cell homogenate and the suspension was incubated for 1 h on ice. Next, cells were sonicated for 2 min (30 s on/off pulses at an amplitude of 40%) and the lysate was centrifuged twice at 23,000× g, 4 °C, for 1 h. The clarified supernatant was filtered (0.4 µm filter) and applied to a 5 mL HisTrap column (GE Healthcare, Chicago, IL, USA) pre-equilibrated with Buffer A. The column was washed with 15 mL of Buffer A and then with 15 mL of Buffer A + 20 mM Imidazole. The recombinant protein was eluted from the column with Buffer A + 500 mM Imidazole. The elution fractions containing the biosensor (optical observation) were pooled and buffer exchanged against Buffer A using a PD-10 column (G25-sepharose, GE Healthcare). In order to remove the His-tag, the recombinant protein was digested overnight (4 °C) using 4.5 mg/mL TEV protease in Buffer A containing 5 mM DTT and 2 mM EDTA. Finally, the digested sample was applied to a 5 mL HisTrap column pre-equilibrated with Buffer A, and the flow-through containing the un-tagged biosensor was collected. The purity of the recombinant biosensor was evaluated by SDS-PAGE, and the protein concentration estimated by measuring absorbance at 280 nm (ε^280 23.290 M^−1cm^−1) in a Nanodrop DS-11 FX device. Upon purification, the biosensor was obtained in an oxidized state, as assessed via spectrofluorimetry (see below).
For the fluorescence assays, the recombinant biosensor was used at a final concentration of 5 µM and compounds at 50 µM in Buffer A with DMSO (final concentration 1%). DTT was added at 10 mM for achieving full biosensor reduction. Fluorescence spectra ([…] and emission) were recorded using a Cary Eclipse equipment. […]

[6] = MTT cytotoxicity assay, HepG2; format: cell-based; details: human, HepG2 cells, HepG2, 72 h, read-out: CC50 HepG2 Hepatocytes
Protocol: as §1

[7] = tested on: bloodstream form of T. b. brucei (strain 427); experiment: Bioluminescence viability assay against bloodstream T. b. brucei expressing luciferase; details: for T. brucei SI vs. Hepatocytes: CC50 HepG2 hepatocytes/IC50 T. brucei; for T. brucei bloodstream SI vs. Macrophages: CC50 RAW macrophages/IC50 T. brucei; for activity at 10 µM / IC50: 24 h; for activity at 10 µM: read-out: T. brucei bloodstream % Growth (10 µM), 10 µM, 24 h; for anti-T. brucei activity in preliminary screening, in words: 10 µM
[8] = Trypanosoma brucei, read-out: T. brucei bloodstream IC50, 24 h, bioluminescence
[9] = read-out: T. brucei bloodstream IC50, bioluminescence
[10] = Leishmania mexicana, read-out: L. mexicana Promastigote IC50, promastigotes, 48 h, MTT
[11] = read-out: L. mexicana Promastigote IC50, promastigotes, MTT

| Structure (SMILES) | intracellular biosensor oxidation [1] [%] | biosensor oxidation vs. DMSO [1] [%] | L. mexicana Promastigote SI vs. Hepatocytes [2] | L. mexicana Promastigote SI vs. Macrophage [2] | CC50 at 48 h [3] [µM] | radical scavenging activity relative to ascorbic acid [4] | direct oxidation of the reduced recombinant biosensor [5] | prevention of biosensor oxidation (oxidized form) [5] | CC50 at 72 h [6] [µM] | T. brucei SI vs. Hepatocytes [7] | T. brucei bloodstream SI vs. Macrophages [7] | activity at 10 µM ([7]; Trypanosoma brucei) [%] | IC50 [7, 8] [µM] | IC50 [7, 9] [µM] | IC50 [2, 10] [µM] | melting point [°C] | anti-T. brucei activity in preliminary screening, in words [7] | IC50 [2, 11] [µM] | SI against T. brucei, range over both mammalian cell lines ([7]; murine macrophages and HepG2 hepatocytes) |
| --- | --- | --- | --- | --- | --- | --- | --- | --- | --- | --- | --- | --- | --- | --- | --- | --- | --- | --- | --- |
| Cc1nn(-c2ccccc2)c(O)c1C(c1ccc(C(F)(F)F)cc1)c1c(C)nn(-c2ccccc2)c1O [Compound 2r] | 56 | 23 | 6.1 | 16.4 | 54 ± 3 | higher | did not induce direct oxidation | 11–13% | 20 ± 4 | 2.0 | 5.4 | ≤ 50 | 10 ± 3 |  |  |  |  |  |  |
| Cc1nn(-c2ccccc2)c(O)c1C(c1cccc(C(F)(F)F)c1)c1c(C)nn(-c2ccccc2)c1O [Compound 2w, 4,4′-[(3-trifluoromethylphenyl)methylene]bis(3-methyl-1-phenyl-1H-pyrazol-5-ol)] | 63 | 30 | 6.5 | 15.2 | 61 ± 4 |  | did not induce direct oxidation | 11–13% | 26 ± 3 | 2.9 | 6.8 | ≤ 50 | 9 | 8.9 ± 0.7 |  |  |  |  |  |
| Cc1nn(-c2ccccc2)c(O)c1C(c1ccc(O)c(O)c1)c1c(C)nn(-c2ccccc2)c1O [Compound 2n] |  |  | >14.3 |  | 70 ± 7 | higher |  |  | > 100 | >9.8 | 7 | ≤ 50 | 10 | 10.2 ± 1.75 | 7 ± 1 |  |  |  |  |
| COc1ccc(C(c2c(C)nn(-c3ccccc3)c2O)c2c(C)nn(-c3ccccc3)c2O)cc1O [Compound 2j] |  |  | >10 | 11.3 | 113 ± 15 |  |  |  | > 100 |  |  | > 100 |  |  | 10 ± 4 | 200 to 202 | inactive |  |  |
| Cc1nn(-c2ccccc2)c(O)c1C(c1cc(C(F)(F)F)cc(C(F)(F)F)c1)c1c(C)nn(-c2ccccc2)c1O [Compound 2x, 4,4′-{[3,5-bis(trifluoromethyl)phenyl]methylene}bis(3-methyl-1-phenyl-1H-pyrazol-5-ol)] | 95 | 63 | 4.3 | 4.8 | 34 ± 5 |  | did not induce direct oxidation | 11–13% | 30 ± 2 | 16 | 18 |  | 1.9 ± 0.9 |  | ≤ 10 |  |  | 7 ± 2 | 11.6–18 |
| Cc1nn(-c2ccccc2)c(O)c1C(c1ccccc1C(F)(F)F)c1c(C)nn(-c2ccccc2)c1O [Compound 2v, 4,4′-[(2-trifluoromethylphenyl)methylene]bis(3-methyl-1-phenyl-1H-pyrazol-5-ol)] |  |  | 3.5 | 15.1 | 91 ± 18 |  |  |  | 21 ± 2 |  |  |  |  |  | ≤ 10 | 245 to 248 | inactive; also recorded: lacked activity | 6 ± 1 |  |
| COc1cccc(C(c2c(C)nn(-c3ccccc3)c2O)c2c(C)nn(-c3ccccc3)c2O)c1 [Compound 2i] |  |  | >10 | 23.2 | 232 ± 25 |  |  |  | > 100 |  |  | > 100 |  |  | 10 ± 3 | 205.7 to 207.1 | inactive |  |  |
| Cc1nn(-c2ccccc2)c(O)c1C(c1ccc(F)cc1)c1c(C)nn(-c2ccccc2)c1O [Compound 2p] |  |  | 0.8 | 2.5 | 43 ± 6 |  |  |  | 13 ± 2 |  |  | 79 ± 8 |  |  | 17 ± 1 | 183.8 to 185.8 |  |  |  |
| Cc1nn(-c2ccccc2)c(O)c1C(c1cccc(F)c1)c1c(C)nn(-c2ccccc2)c1O [Compound 2t] |  |  | 1.8 | 10.5 | 115 ± 21 |  |  |  | 20 ± 11 |  |  | > 100 |  |  | 11 ± 1 | 178 to 179 | inactive |  |  |
